Source: BigSolDB 2.1

NC(N)=C([N+](=O)[O-])[N+](=O)[O-]
Details | solubility (mole fraction)
in 1,4-dioxane, 298.15 K | 7.2e-05
in 1,4-dioxane, 314.15 K | 0.000102
in 1,4-dioxane, 326.85 K | 0.000143
in 1,4-dioxane, 339.65 K | 0.000215
in 1,4-dioxane, 341.45 K | 0.000257
in 1,4-dioxane, 347.55 K | 0.000315
in 1,4-dioxane, 358.35 K | 0.000357
in DEF, 298.35 K | 0.0702
in DEF, 314.15 K | 0.0824
in DEF, 324.95 K | 0.0914
in DEF, 340.15 K | 0.102
in DEF, 349.85 K | 0.112
in DEF, 367.45 K | 0.15
in DMF, 297.15 K | 0.0946
in DMF, 310.75 K | 0.109
in DMF, 327.85 K | 0.122
in DMF, 340.15 K | 0.136
in DMF, 352.75 K | 0.148
in DMF, 361.05 K | 0.161
in DMF, 365.15 K | 0.173
in DMSO, 293.75 K | 0.183
in DMSO, 303.85 K | 0.188
in DMSO, 312.15 K | 0.193
in DMSO, 319.15 K | 0.204
in DMSO, 328.65 K | 0.214
in DMSO, 339.85 K | 0.224
in DMSO, 350.15 K | 0.233
in DMSO, 354.15 K | 0.238
in DMSO, 358.15 K | 0.242
in DMSO, 367.15 K | 0.261
in NMP, 295.05 K | 0.163
in NMP, 318.15 K | 0.186
in NMP, 344.45 K | 0.207
in NMP, 363.85 K | 0.227
in NMP, 371.75 K | 0.246
in cyclohexanone, 291.95 K | 0.00244
in cyclohexanone, 320.85 K | 0.00434
in cyclohexanone, 330.95 K | 0.00521
in cyclohexanone, 335.65 K | 0.0061
in cyclohexanone, 343.15 K | 0.00693
in cyclohexanone, 360.85 K | 0.0104
in cyclohexanone, 370.35 K | 0.0138
in ethyl acetate, 296.15 K | 0.000116
in ethyl acetate, 304.95 K | 0.000187
in ethyl acetate, 314.75 K | 0.00027
in ethyl acetate, 318.15 K | 0.000282
in ethyl acetate, 324.35 K | 0.000332
in ethyl acetate, 326.55 K | 0.000368
in ethyl acetate, 334.15 K | 0.000444
in ethyl acetate, 344.65 K | 0.000544
in gamma-butyrolactone, 300.15 K | 0.0064
in gamma-butyrolactone, 304.15 K | 0.0077
in gamma-butyrolactone, 324.55 K | 0.0128
in gamma-butyrolactone, 332.55 K | 0.0153
in gamma-butyrolactone, 336.45 K | 0.0178
in gamma-butyrolactone, 343.45 K | 0.0202
in gamma-butyrolactone, 346.25 K | 0.0227
in gamma-butyrolactone, 350.85 K | 0.0252
in gamma-butyrolactone, 357.85 K | 0.0313
in gamma-butyrolactone, 368.55 K | 0.0373
in water, 296.15 K | 2e-05
in water, 303.45 K | 3.5e-05
in water, 310.75 K | 6e-05
in water, 318.65 K | 0.000122
in water, 326.15 K | 0.000154
in water, 328.55 K | 0.000198
in water, 337.95 K | 0.000277
in water, 343.15 K | 0.000365
in water, 348.75 K | 0.000504
